Assay results taken from PubChem BioAssay AID1919004 (Molecular Pharmacology Branch, DTP, NCI, 2023).

Tested on: 883617-216-R-J1-PDC complex spheroids, growth, % test/control
Assay: Anticancer human tumor 883617-216-R-J1-PDC patient-derived bladder carcinoma cell line growth inhibition [AhR]
Conditions: for IC50: curve of first compound; for viability, T/C: stronger effect = lower value
Method in brief: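 Spheroids combined tumor cells with HUVEC endothelial cells and human MSCs as stroma. AhR antagonists were paired with standard or investigational drugs, each dosed in half-log steps down from near clinical Cmax, or from 10 microM where Cmax was unknown.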

[1] = second compound 0.1 µM, first compound 0.0316 µM
[2] = second compound 0.1 µM, first compound 0.1 µM
[3] = second compound 0.1 µM, first compound 0.316 µM
[4] = second compound 0.1 µM, first compound 1 µM
[5] = second compound 0.1 µM, first compound 3.16 µM
[6] = second compound 0.1 µM, first compound 10 µM
[7] = second compound 0.316 µM, first compound 0.0316 µM
[8] = second compound 0.316 µM, first compound 0.1 µM
[9] = second compound 0.316 µM, first compound 0.316 µM
[10] = second compound 0.316 µM, first compound 1 µM
[11] = second compound 0.316 µM, first compound 3.16 µM
[12] = second compound 0.316 µM, first compound 10 µM
[13] = second compound 1 µM, first compound 0.0316 µM
[14] = second compound 1 µM, first compound 0.1 µM
[15] = second compound 1 µM, first compound 0.316 µM
[16] = second compound 1 µM, first compound 1 µM
[17] = second compound 1 µM, first compound 3.16 µM
[18] = second compound 1 µM, first compound 10 µM
[19] = second compound 3.16 µM, first compound 0.0316 µM
[20] = second compound 3.16 µM, first compound 0.1 µM
[21] = second compound 3.16 µM, first compound 0.316 µM
[22] = second compound 3.16 µM, first compound 1 µM
[23] = second compound 3.16 µM, first compound 3.16 µM
[24] = second compound 3.16 µM, first compound 10 µM
[25] = second compound 10 µM, first compound 0.0316 µM
[26] = second compound 10 µM, first compound 0.1 µM
[27] = second compound 10 µM, first compound 0.316 µM
[28] = second compound 10 µM, first compound 1 µM
[29] = second compound 10 µM, first compound 3.16 µM
[30] = second compound 10 µM, first compound 10 µM
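Also: exposure lasted 7 days after dosing on day 3 of spheroid growth.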

IC50 (second compound 0.1 µM) [nM] | IC50 (second compound 0.316 µM) [nM] | IC50 (second compound 1 µM) [nM] | IC50 (second compound 3.16 µM) [nM] | IC50 (second compound 10 µM) [nM] | Structure (SMILES) | viability, T/C [1] [%] | viability, T/C [2] [%] | viability, T/C [3] [%] | viability, T/C [4] [%] | viability, T/C [5] [%] | viability, T/C [6] [%] | viability, T/C [7] [%] | viability, T/C [8] [%] | viability, T/C [9] [%] | viability, T/C [10] [%] | viability, T/C [11] [%] | viability, T/C [12] [%] | viability, T/C [13] [%] | viability, T/C [14] [%] | viability, T/C [15] [%] | also measured
269 | 456 | 501 | 230 | 167 | COc1cccc2c1C(=O)c1c(O)c3c(c(O)c1C2=O)CC(O)(C(=O)CO)CC3OC1CC(N)C(O)C(C)O1 (stereo not given) + CC(CO)NC(=O)c1cc(-c2ccc(Cl)cc2)nn(-c2cnn(C)c2)c1=O | 115 | 116 | 39.2 | 4.71 | 2.59 | 1.67 | 90.5 | 94.2 | 70.9 | 4.94 | 5.79 | 4.67 | 95.2 | 93.9 | 82.1 | viability, T/C [16]: 1.75%; viability, T/C [17]: 2.44%; viability, T/C [18]: 1.47%; viability, T/C [19]: 91.5%; viability, T/C [20]: 107%; viability, T/C [21]: 31.2%; viability, T/C [22]: 3.13%; viability, T/C [23]: 3.56%; viability, T/C [24]: 0.65%; viability, T/C [25]: 113%; viability, T/C [26]: 65.8%; viability, T/C [27]: 32.6%; viability, T/C [28]: 1.76%; viability, T/C [29]: 1.75%; viability, T/C [30]: 1.1%
2650 | 2400 | 4070 | 3530 | < 31.6 | COc1ccc([C@@H](O)c2cc(-c3ncnc4cc(N5CCOCC5)ccc34)c(F)cc2Cl)nn1 + Cc1cncc(-c2nc(NCCc3c[nH]c4ccccc34)c3ncn(C(C)C)c3n2)c1 | 89.8 | 82.6 | 78.2 | 67.5 | 45.5 | 34.1 | 93.6 | 103 | 87.9 | 67.1 | 45.6 | 35.3 | 100 | 95.4 | 85.9 | viability, T/C [16]: 76.7%; viability, T/C [17]: 50.7%; viability, T/C [18]: 39.3%; viability, T/C [19]: 103%; viability, T/C [20]: 102%; viability, T/C [21]: 94.9%; viability, T/C [22]: 79.9%; viability, T/C [23]: 51.4%; viability, T/C [24]: 33.3%; viability, T/C [25]: 39.6%; viability, T/C [26]: 39.3%; viability, T/C [27]: 38.9%; viability, T/C [28]: 30.4%; viability, T/C [29]: 19.2%; viability, T/C [30]: 10.9%
> 10000 | > 10000 | > 10000 | > 10000 | > 10000 | O=C(c1cc(Cc2n[nH]c(=O)c3ccccc23)ccc1F)N1CCN(C(=O)C2CC2)CC1 + Cc1ccccc1N=Nc1ccc(NC(=O)c2ccnn2C)c(C)c1 | 88.7 | 90.9 | 98.7 | 84.3 | 84.1 | 81 | 84.7 | 82.1 | 76.5 | 86.5 | 74.8 | 85.4 | 89 | 83.2 | 87.2 | viability, T/C [16]: 80.7%; viability, T/C [17]: 80.7%; viability, T/C [18]: 71%; viability, T/C [19]: 82.8%; viability, T/C [20]: 85.6%; viability, T/C [21]: 86.8%; viability, T/C [22]: 75.2%; viability, T/C [23]: 71.3%; viability, T/C [24]: 73.9%; viability, T/C [25]: 82.3%; viability, T/C [26]: 76.8%; viability, T/C [27]: 78.9%; viability, T/C [28]: 70.6%; viability, T/C [29]: 65.9%; viability, T/C [30]: 64.4%
